Results as given in patent US6921824B1, “Ruthenium dimeric complexes suitable as antimetastatic and antineoplastic agents” (priority 1999, dated 2005).

Assay: Solubility in water (remark in preparation)
Format: physicochemical

Solubility in water: not very soluble in water
Substance: [K]2[trans-RuCl4(Me2SO)]2(μ-pyz) [Example 6]
